Data from patent US20050148500A1, “Dopaminergic stimulatory factor” (priority 2001, published 2005).

System: MN9D cells
Assay: Dopamine content of MN9D cells in monolayer culture after incubation with protein (HPLC)
Type: cell-based, mouse
Method: […] The MN9D cells on each plate were then collected in 10 ml of CMF, transferred to 15 ml centrifuge tubes and centrifuged at 1000×g for 5 min. The supernatant was removed and 600 μl of 0.5 N perchloric acid was added to the cell pellet which was then sonicated on ice for 10-15 s. The cell extract was centrifuged at 4000×g for 30 min and the supernatant stored at −80° C. for subsequent high pressure liquid chromatography (HPLC) analysis of MN9D cell dopamine content. The pellet was stored at −20° C. for subsequent protein analysis.
A second experiment was then conducted to determine whether this effect was due to a change in the doubling time (24 h) of the MN9D cells with increased cell production or was the result of an increase in cellular dopamine. […] Cells were removed from the plates and cell numbers determined by counting in a hematocytometer. Dopamine content was determined by HPLC analysis. […]
After this period, the MN9D cells on each plate are collected in 10 ml of CMF, transferred to 15 ml centrifuge tubes and centrifuged at 1000×g for 5 min. […] MN9D cell DA content is determined by reverse phase high pressure liquid chromatography with electrochemical detection (HPLC-ED) as previously described (Heller et al., 1993). […]

Substance: insulin growth factor II [IGF-II]
- effect on MN9D DA levels: without effect
